# Compound: Nc1nc2c(ncn2[C@@H]2O[C@H](COP(=O)(O)OP(=O)(O)OP(=O)(O)O)[C@@H](O)[C@H]2O)c(=O)[nH]1 [guanosine triphosphate]
# Experiment: pEC50 of GTP-induced change in protein thermal stability (2D-TPP)
# Summary of the method: (§1)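 Each of three independent experiments used Jurkat crude lysate given five concentrations including vehicle (10 min, room temperature), followed by 3 min at one of 12 temperatures from 42 to 63.9 °C and NP40 with benzonase (60 min, 4 °C). TMT LC-MS/MS quantified soluble protein after ultracentrifugation, expressed as fold changes against vehicle at each temperature with median normalisation. For pEC50, dose-response curves were fitted per replicate over adjacent temperature pairs, and hits were called through permutation-based false discovery rate control.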
# 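For pEC50 of ATP-induced change in protein thermal stability (2D-TPP) in this document: lysate dosed with Na-ATP at 0 0.005 0.05 0.5 and 2 mM.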
# Chain of UniProt Q96DA2 (Q96DA2 whole entry): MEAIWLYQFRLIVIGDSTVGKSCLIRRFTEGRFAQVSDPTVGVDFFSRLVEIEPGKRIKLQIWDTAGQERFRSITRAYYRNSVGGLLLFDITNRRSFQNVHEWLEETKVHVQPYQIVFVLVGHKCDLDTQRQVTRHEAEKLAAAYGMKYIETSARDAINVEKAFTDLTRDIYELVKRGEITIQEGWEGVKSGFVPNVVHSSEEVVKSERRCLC
# Chain of UniProt P48047 (P48047 whole entry): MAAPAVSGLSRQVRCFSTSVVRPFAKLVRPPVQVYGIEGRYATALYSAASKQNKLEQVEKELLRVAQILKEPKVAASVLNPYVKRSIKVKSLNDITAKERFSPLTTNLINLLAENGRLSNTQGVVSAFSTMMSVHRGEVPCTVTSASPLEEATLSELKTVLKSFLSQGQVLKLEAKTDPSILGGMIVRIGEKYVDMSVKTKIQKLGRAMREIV
# Chain of UniProt Q969Z0 (Q969Z0 whole entry): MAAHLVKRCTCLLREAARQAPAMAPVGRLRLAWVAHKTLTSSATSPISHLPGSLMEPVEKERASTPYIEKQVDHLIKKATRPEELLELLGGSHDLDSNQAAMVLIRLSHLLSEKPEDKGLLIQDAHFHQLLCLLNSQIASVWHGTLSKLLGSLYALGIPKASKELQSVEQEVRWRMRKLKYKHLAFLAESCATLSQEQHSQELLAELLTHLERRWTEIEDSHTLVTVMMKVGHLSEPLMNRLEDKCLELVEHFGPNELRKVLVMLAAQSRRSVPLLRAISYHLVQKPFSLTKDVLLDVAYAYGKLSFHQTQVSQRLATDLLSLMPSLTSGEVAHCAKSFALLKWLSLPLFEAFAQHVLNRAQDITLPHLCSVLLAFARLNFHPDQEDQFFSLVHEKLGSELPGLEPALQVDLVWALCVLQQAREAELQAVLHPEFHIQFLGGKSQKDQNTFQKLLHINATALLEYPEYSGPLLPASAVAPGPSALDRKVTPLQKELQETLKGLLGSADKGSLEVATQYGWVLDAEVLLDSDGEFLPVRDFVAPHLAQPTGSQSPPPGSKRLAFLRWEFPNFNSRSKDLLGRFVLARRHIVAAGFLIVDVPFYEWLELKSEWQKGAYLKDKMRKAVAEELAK
# Chain of UniProt Q16512 (Q16512 whole entry, looked up): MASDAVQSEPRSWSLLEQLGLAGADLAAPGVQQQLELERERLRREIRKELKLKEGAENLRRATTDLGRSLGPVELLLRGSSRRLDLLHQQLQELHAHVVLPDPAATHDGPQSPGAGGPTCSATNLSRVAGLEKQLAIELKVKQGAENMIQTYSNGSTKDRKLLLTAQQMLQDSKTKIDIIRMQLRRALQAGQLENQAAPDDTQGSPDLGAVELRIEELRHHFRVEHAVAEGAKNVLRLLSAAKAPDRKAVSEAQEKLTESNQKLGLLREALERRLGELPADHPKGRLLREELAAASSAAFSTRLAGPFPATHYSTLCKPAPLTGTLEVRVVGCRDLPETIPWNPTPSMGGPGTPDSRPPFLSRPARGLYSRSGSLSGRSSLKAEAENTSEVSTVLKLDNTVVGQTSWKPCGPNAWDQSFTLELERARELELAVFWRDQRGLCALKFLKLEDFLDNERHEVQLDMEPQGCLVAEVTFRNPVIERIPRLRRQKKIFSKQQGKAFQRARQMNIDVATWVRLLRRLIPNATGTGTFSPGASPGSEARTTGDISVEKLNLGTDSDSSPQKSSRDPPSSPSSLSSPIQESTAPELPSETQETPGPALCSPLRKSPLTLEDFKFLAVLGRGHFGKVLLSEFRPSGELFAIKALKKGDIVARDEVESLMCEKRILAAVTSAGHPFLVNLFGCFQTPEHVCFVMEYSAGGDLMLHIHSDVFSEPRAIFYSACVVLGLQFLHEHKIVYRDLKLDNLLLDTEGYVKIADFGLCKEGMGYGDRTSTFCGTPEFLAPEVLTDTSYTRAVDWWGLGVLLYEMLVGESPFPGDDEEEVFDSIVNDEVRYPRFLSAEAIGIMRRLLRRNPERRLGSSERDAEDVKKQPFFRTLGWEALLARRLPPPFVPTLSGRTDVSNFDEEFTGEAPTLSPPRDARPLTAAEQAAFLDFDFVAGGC
# Chain of UniProt P61106 (P61106 whole entry, looked up): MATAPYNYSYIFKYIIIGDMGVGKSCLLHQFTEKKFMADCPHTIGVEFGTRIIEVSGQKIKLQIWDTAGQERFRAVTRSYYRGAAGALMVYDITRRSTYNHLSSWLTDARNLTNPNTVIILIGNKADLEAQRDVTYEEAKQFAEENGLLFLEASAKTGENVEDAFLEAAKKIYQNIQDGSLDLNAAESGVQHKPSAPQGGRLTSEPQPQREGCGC
# Chain of UniProt Q92973 (Q92973 whole entry): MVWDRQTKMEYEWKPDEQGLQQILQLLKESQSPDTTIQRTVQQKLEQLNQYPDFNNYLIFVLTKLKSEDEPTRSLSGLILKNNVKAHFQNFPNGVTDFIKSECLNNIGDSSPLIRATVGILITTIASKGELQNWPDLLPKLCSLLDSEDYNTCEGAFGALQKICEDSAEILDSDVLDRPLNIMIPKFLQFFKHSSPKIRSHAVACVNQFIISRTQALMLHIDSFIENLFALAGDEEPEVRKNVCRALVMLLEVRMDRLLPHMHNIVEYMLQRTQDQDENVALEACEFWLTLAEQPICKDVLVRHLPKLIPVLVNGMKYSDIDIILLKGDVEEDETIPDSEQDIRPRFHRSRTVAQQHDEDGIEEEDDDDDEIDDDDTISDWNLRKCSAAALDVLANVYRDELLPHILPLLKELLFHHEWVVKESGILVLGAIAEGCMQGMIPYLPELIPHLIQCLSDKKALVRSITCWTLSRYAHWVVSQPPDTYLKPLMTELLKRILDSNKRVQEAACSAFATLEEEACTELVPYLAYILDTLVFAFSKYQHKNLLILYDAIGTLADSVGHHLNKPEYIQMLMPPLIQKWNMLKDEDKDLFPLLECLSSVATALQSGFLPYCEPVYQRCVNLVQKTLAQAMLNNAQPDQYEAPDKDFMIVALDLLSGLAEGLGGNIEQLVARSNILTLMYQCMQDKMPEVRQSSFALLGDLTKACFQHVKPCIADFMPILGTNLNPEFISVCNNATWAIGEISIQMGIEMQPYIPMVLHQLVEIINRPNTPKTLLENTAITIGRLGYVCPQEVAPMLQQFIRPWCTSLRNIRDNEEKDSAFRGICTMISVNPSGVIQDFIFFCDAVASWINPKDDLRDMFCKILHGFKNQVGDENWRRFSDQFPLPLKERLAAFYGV
# Chain of UniProt P62070 (P62070 whole entry): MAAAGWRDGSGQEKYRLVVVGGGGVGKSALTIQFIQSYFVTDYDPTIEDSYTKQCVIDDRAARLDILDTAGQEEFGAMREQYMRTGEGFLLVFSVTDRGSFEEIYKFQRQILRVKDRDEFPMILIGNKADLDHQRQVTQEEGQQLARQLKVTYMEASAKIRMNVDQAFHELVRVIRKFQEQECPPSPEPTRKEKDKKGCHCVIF
# Chain of UniProt P17858 (P17858 whole entry): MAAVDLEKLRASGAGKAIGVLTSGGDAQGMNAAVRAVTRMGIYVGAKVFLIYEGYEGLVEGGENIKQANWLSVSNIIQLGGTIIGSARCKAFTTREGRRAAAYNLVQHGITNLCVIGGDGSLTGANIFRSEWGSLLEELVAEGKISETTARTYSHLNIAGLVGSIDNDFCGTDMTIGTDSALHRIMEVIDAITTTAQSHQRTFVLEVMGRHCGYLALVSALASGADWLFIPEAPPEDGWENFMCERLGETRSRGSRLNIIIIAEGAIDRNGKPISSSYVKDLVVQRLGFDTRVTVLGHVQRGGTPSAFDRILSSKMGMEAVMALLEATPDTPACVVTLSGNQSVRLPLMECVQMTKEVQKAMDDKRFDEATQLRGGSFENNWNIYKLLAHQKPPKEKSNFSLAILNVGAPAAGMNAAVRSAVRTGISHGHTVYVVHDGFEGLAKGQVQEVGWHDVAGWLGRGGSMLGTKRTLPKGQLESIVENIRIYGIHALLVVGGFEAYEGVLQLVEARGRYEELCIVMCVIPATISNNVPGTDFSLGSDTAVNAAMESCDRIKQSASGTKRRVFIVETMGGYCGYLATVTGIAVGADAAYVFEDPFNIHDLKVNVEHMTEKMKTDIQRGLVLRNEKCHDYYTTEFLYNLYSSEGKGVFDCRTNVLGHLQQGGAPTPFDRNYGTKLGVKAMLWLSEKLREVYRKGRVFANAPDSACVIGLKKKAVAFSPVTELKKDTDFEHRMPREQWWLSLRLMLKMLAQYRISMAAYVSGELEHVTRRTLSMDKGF
# Chain of UniProt P51148 (P51148 whole entry): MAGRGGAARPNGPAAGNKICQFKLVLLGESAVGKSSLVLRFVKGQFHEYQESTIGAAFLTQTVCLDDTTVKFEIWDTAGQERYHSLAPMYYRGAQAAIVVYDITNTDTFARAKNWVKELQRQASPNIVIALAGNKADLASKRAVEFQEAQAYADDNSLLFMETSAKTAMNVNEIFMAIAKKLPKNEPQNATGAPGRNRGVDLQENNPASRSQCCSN
# Chain of UniProt Q86YS6 (Q86YS6 whole entry): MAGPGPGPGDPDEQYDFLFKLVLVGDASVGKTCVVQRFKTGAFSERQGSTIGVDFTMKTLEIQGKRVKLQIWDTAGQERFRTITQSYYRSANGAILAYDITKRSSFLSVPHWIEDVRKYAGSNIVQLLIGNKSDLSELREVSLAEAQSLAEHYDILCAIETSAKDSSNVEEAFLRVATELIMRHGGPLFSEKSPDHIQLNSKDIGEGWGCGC
# Chain of UniProt P45985 (P45985 whole entry): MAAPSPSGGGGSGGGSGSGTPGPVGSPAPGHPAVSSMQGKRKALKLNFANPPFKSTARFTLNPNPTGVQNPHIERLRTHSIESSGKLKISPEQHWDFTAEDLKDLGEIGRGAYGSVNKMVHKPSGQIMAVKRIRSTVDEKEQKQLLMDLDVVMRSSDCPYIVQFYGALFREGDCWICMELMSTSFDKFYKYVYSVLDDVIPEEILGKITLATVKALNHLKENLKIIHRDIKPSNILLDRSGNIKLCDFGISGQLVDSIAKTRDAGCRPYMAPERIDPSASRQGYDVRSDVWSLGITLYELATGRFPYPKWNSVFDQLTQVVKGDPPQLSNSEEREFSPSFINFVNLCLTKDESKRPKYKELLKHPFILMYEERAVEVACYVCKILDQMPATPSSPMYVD
row,pEC50,Target
1,3.87,NSUN2 (effect direction: stabilized) (UniProt Q08J23)
2,3.44,PAK4 (effect direction: stabilized) (UniProt O96013)
3,3.72,PRKAR1A (effect direction: stabilized) (UniProt P10644)
4,4.08,PRKCQ (effect direction: stabilized) (UniProt Q04759)
5,4.39,RAB2A (effect direction: stabilized) (UniProt P61019)
6,4.51,RAB8A (effect direction: stabilized) (UniProt P61006)
7,4.03,RAB39B (effect direction: stabilized) (UniProt Q96DA2)
8,4.47,RAB43 (effect direction: stabilized) (UniProt Q86YS6)
9,3.49,RAD50 (effect direction: stabilized) (UniProt Q92878)
10,3.67,RUVBL1 (effect direction: stabilized) (UniProt Q9Y265)
11,3.71,SET (effect direction: stabilized) (UniProt Q01105)
12,3.68,TNPO1 (effect direction: stabilized) (UniProt Q92973)
13,3.76,TNPO3 (effect direction: stabilized) (UniProt Q9Y5L0)
14,3.58,TP53RK (effect direction: stabilized) (UniProt Q96S44)
15,4.08,UniProt O00442 (effect direction: stabilized)
16,3.81,UniProt P08240 (effect direction: stabilized)
17,3.72,UniProt P17612 (effect direction: stabilized)
18,3.92,UniProt P19784 (effect direction: stabilized)
19,4.12,UniProt P36542 (effect direction: stabilized)
20,3.9,UniProt P48047 (effect direction: stabilized)
21,4.03,UniProt P59998 (effect direction: stabilized)
22,4.33,UniProt P61106 (effect direction: stabilized)
23,3.99,UniProt P61160 (effect direction: stabilized)
24,4.25,UniProt P61224 (effect direction: stabilized)
25,3.75,UniProt P62333 (effect direction: stabilized)
26,3.93,UniProt Q6XQN6 (effect direction: stabilized)
27,3.96,UniProt Q9BW83 (effect direction: stabilized)
28,3.86,UniProt Q712K3 (effect direction: stabilized)
29,3.79,VARS (effect direction: stabilized) (UniProt P26640)

# The next lines start with the target.
row,Target,pEC50
1,NUBP2 (effect direction: stabilized) (UniProt Q9Y5Y2),4.71
2,OLA1 (effect direction: stabilized) (UniProt Q9NTK5),3.87
3,OSGEP (effect direction: stabilized) (UniProt Q9NPF4),3.88
4,PEX1 (effect direction: stabilized) (UniProt O43933),3.72
5,PFKL (effect direction: stabilized) (UniProt P17858),3.54
6,PRKCB (effect direction: stabilized) (UniProt P05771),3.86
7,RAB2B (effect direction: stabilized) (UniProt Q8WUD1),4.52
8,RAB4A (effect direction: stabilized) (UniProt P20338),4.52
9,RAB4B (effect direction: stabilized) (UniProt P61018),5
10,RAB5C (effect direction: stabilized) (UniProt P51148),4.49
11,RAB8B (effect direction: stabilized) (UniProt Q92930),4.27
12,RAB21 (effect direction: stabilized) (UniProt Q9UL25),4.53
13,RAB33A (effect direction: stabilized) (UniProt Q14088),3.89
14,RABL3 (effect direction: stabilized) (UniProt Q5HYI8),3.95
15,RHEB (effect direction: stabilized) (UniProt Q15382),4.45
16,RHOA (effect direction: stabilized) (UniProt P61586),4.45
17,RUVBL2 (effect direction: stabilized) (UniProt Q9Y230),3.77
18,SUCLA2 (effect direction: stabilized) (UniProt Q9P2R7),3.78
19,SUCLG1 (effect direction: stabilized) (UniProt P53597),3.83
20,SUCLG2 (effect direction: stabilized) (UniProt Q96I99),3.5
21,TBCD (effect direction: stabilized) (UniProt Q9BTW9),3.7
22,TBRG4 (effect direction: stabilized) (UniProt Q969Z0),3.48

row,Target,pEC50
1,THUMPD1 (effect direction: stabilized) (UniProt Q9NXG2),3.86
2,TNPO2 (effect direction: stabilized) (UniProt O14787),< 3.3
3,TUBG1 (effect direction: stabilized) (UniProt P23258),4.06
4,UAP1L1 (effect direction: stabilized) (UniProt Q3KQV9),3.38
5,UBA1 (effect direction: stabilized) (UniProt P22314),3.79
6,UCK2 (effect direction: stabilized) (UniProt Q9BZX2),3.9
7,UniProt O43776 (effect direction: stabilized),4.05
8,UniProt O75323 (effect direction: stabilized),3.66
9,UniProt P07437 (effect direction: stabilized),4.05
10,UniProt P17252 (effect direction: stabilized),4.06
11,UniProt P45985 (effect direction: stabilized),3.78
12,UniProt P52564 (effect direction: stabilized),3.9
13,UniProt P61026 (effect direction: stabilized),4.35
14,UniProt P61086 (effect direction: stabilized),3.76
15,UniProt P61225 (effect direction: stabilized),4.05
16,UniProt P62070 (effect direction: stabilized),4.08
17,UniProt P62820 (effect direction: stabilized),4.31
18,UniProt P68363 (effect direction: stabilized),3.88
19,UniProt Q01130 (effect direction: stabilized),3.56
20,UniProt Q15286 (effect direction: stabilized),4.35
21,UniProt Q16512 (effect direction: stabilized),4.22

# Compound: Nc1ncnc2c1ncn2[C@@H]1O[C@H](COP(=O)(O)OP(=O)(O)OP(=O)(O)O)[C@@H](O)[C@H]1O [adenosine triphosphate]
# Experiment: pEC50 of ATP-induced change in protein thermal stability (2D-TPP)
# Summary of the method: as §1
row,pEC50,Target
1,< 2.7,NSUN2 (effect direction: stabilized) (UniProt Q08J23)
2,4.07,PAK4 (effect direction: stabilized) (UniProt O96013)
3,3.85,PRKAR1A (effect direction: stabilized) (UniProt P10644)
4,4.19,PRKCQ (effect direction: stabilized) (UniProt Q04759)
5,3.56,RAB2A (effect direction: stabilized) (UniProt P61019)
6,4.15,RAB8A (effect direction: stabilized) (UniProt P61006)
7,3.52,RAB39B (effect direction: stabilized) (UniProt Q96DA2)
8,3.55,RAB43 (effect direction: stabilized) (UniProt Q86YS6)
9,3.37,RAD50 (effect direction: stabilized) (UniProt Q92878)
10,4.34,RUVBL1 (effect direction: stabilized) (UniProt Q9Y265)
11,3.06,SET (effect direction: stabilized) (UniProt Q01105)
12,2.89,TNPO1 (effect direction: stabilized) (UniProt Q92973)
13,3.08,TNPO3 (effect direction: stabilized) (UniProt Q9Y5L0)
14,3.46,TP53RK (effect direction: stabilized) (UniProt Q96S44)
15,4.08,UniProt O00442 (effect direction: stabilized)
16,4.01,UniProt P08240 (effect direction: stabilized)
17,3.82,UniProt P17612 (effect direction: stabilized)
18,4.12,UniProt P19784 (effect direction: stabilized)
19,4.25,UniProt P36542 (effect direction: stabilized)
20,3.53,UniProt P48047 (effect direction: stabilized)
21,3.9,UniProt P59998 (effect direction: stabilized)
22,3.66,UniProt P61106 (effect direction: stabilized)
23,4.25,UniProt P61160 (effect direction: stabilized)
24,3.9,UniProt P61224 (effect direction: stabilized)
25,4.38,UniProt P62333 (effect direction: stabilized)
26,4.21,UniProt Q6XQN6 (effect direction: stabilized)
27,3.12,UniProt Q9BW83 (effect direction: stabilized)
28,4.18,UniProt Q712K3 (effect direction: stabilized)
29,3.57,VARS (effect direction: stabilized) (UniProt P26640)

# More lines, now with the values behind:
row,Target,pEC50
1,NUBP2 (effect direction: stabilized) (UniProt Q9Y5Y2),3.41
2,OLA1 (effect direction: stabilized) (UniProt Q9NTK5),3.81
3,OSGEP (effect direction: stabilized) (UniProt Q9NPF4),3.8
4,PEX1 (effect direction: stabilized) (UniProt O43933),3.98
5,PFKL (effect direction: stabilized) (UniProt P17858),3.4
6,PRKCB (effect direction: stabilized) (UniProt P05771),3.44
7,RAB2B (effect direction: stabilized) (UniProt Q8WUD1),3.45
8,RAB4A (effect direction: stabilized) (UniProt P20338),3.45
9,RAB4B (effect direction: stabilized) (UniProt P61018),3.79
10,RAB5C (effect direction: stabilized) (UniProt P51148),4.22
11,RAB8B (effect direction: stabilized) (UniProt Q92930),3.93
12,RAB21 (effect direction: stabilized) (UniProt Q9UL25),3.75
13,RAB33A (effect direction: stabilized) (UniProt Q14088),3.39
14,RABL3 (effect direction: stabilized) (UniProt Q5HYI8),3.4
15,RHEB (effect direction: stabilized) (UniProt Q15382),3.28
16,RHOA (effect direction: stabilized) (UniProt P61586),4.15
17,RUVBL2 (effect direction: stabilized) (UniProt Q9Y230),4.33
18,SUCLA2 (effect direction: stabilized) (UniProt Q9P2R7),3.2
19,SUCLG1 (effect direction: stabilized) (UniProt P53597),3.48
20,SUCLG2 (effect direction: stabilized) (UniProt Q96I99),3.43
21,TBCD (effect direction: stabilized) (UniProt Q9BTW9),2.92
22,TBRG4 (effect direction: stabilized) (UniProt Q969Z0),3.26

row,Target,pEC50
1,THUMPD1 (effect direction: stabilized) (UniProt Q9NXG2),3.08
2,TNPO2 (effect direction: stabilized) (UniProt O14787),< 2.7
3,TUBG1 (effect direction: stabilized) (UniProt P23258),3.17
4,UAP1L1 (effect direction: stabilized) (UniProt Q3KQV9),3.13
5,UBA1 (effect direction: stabilized) (UniProt P22314),4.18
6,UCK2 (effect direction: stabilized) (UniProt Q9BZX2),3.28
7,UniProt O43776 (effect direction: stabilized),4.13
8,UniProt O75323 (effect direction: stabilized),3.94
9,UniProt P07437 (effect direction: stabilized),3.35
10,UniProt P17252 (effect direction: stabilized),4.25
11,UniProt P45985 (effect direction: stabilized),3.79
12,UniProt P52564 (effect direction: stabilized),4
13,UniProt P61026 (effect direction: stabilized),3.83
14,UniProt P61086 (effect direction: stabilized),4.05
15,UniProt P61225 (effect direction: stabilized),3.48
16,UniProt P62070 (effect direction: stabilized),3.42
17,UniProt P62820 (effect direction: stabilized),3.74
18,UniProt P68363 (effect direction: stabilized),2.98
19,UniProt Q01130 (effect direction: stabilized),3.23
20,UniProt Q15286 (effect direction: stabilized),3.53
21,UniProt Q16512 (effect direction: stabilized),3.69
